Test system: SEM cells
Assay: cell viability relative to DMSO control; higher = less cytotoxic
Settings: 48 h
Procedure, shortened: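 NOMO1 or SEM (500 cells/well) or P12-Ichikawa (1000 cells/well) leukemia cells were adapted for at least four passages in each medium. They were seeded in 1536-well plates (5 μl) and pin-dosed with library compounds in DMSO over an 11-point threefold series, 47 μM to 0.79 nM. CellTiter-Glo One luminescence was read after 48 h at 37°C. Viability is the per-plate percentage relative to DMSO wells, with cell-free wells as background.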

[1] = HPLM + 10% dialyzed FBS, 0.000781 µM
[2] = HPLM + 10% dialyzed FBS, 0.00234 µM
[3] = HPLM + 10% dialyzed FBS, 0.00702 µM
[4] = HPLM + 10% dialyzed FBS, 0.0211 µM
[5] = HPLM + 10% dialyzed FBS, 0.0632 µM
[6] = HPLM + 10% dialyzed FBS, 0.19 µM
[7] = HPLM + 10% dialyzed FBS, 0.569 µM
[8] = HPLM + 10% dialyzed FBS, 1.71 µM
[9] = HPLM + 10% dialyzed FBS, 5.12 µM
[10] = HPLM + 10% dialyzed FBS, 15.4 µM
[11] = HPLM + 10% dialyzed FBS, 46.1 µM
[12] = RPMI 5 mM glucose + 10% FBS, 0.000781 µM
[13] = RPMI 5 mM glucose + 10% FBS, 0.00234 µM
[14] = RPMI 5 mM glucose + 10% FBS, 0.00702 µM
[15] = RPMI 5 mM glucose + 10% FBS, 0.0211 µM
[16] = RPMI 5 mM glucose + 10% FBS, 0.0632 µM
[17] = RPMI 5 mM glucose + 10% FBS, 0.19 µM
[18] = RPMI 5 mM glucose + 10% FBS, 0.569 µM
[19] = RPMI 5 mM glucose + 10% FBS, 1.71 µM
[20] = RPMI 5 mM glucose + 10% FBS, 5.12 µM
[21] = RPMI 5 mM glucose + 10% FBS, 15.4 µM
[22] = RPMI 5 mM glucose + 10% FBS, 46.1 µM
[23] = RPMI 5 mM glucose + 10% dialyzed FBS, 0.000781 µM
[24] = RPMI 5 mM glucose + 10% dialyzed FBS, 0.00234 µM
[25] = RPMI 5 mM glucose + 10% dialyzed FBS, 0.00702 µM
[26] = RPMI 5 mM glucose + 10% dialyzed FBS, 0.0211 µM
[27] = RPMI 5 mM glucose + 10% dialyzed FBS, 0.0632 µM
[28] = RPMI 5 mM glucose + 10% dialyzed FBS, 0.19 µM
[29] = RPMI 5 mM glucose + 10% dialyzed FBS, 0.569 µM
[30] = RPMI 5 mM glucose + 10% dialyzed FBS, 1.71 µM
[31] = RPMI 5 mM glucose + 10% dialyzed FBS, 5.12 µM
[32] = RPMI 5 mM glucose + 10% dialyzed FBS, 15.4 µM
[33] = RPMI 5 mM glucose + 10% dialyzed FBS, 46.1 µM

| Structure (SMILES) | cell viability [1] [%] | cell viability [2] [%] | cell viability [3] [%] | cell viability [4] [%] | cell viability [5] [%] | cell viability [6] [%] | cell viability [7] [%] | cell viability [8] [%] | cell viability [9] [%] | cell viability [10] [%] | cell viability [11] [%] | cell viability [12] [%] | cell viability [13] [%] | cell viability [14] [%] | cell viability [15] [%] | cell viability [16] [%] | cell viability [17] [%] | cell viability [18] [%] | cell viability [19] [%] | cell viability [20] [%] | cell viability [21] [%] | cell viability [22] [%] | cell viability [23] [%] | cell viability [24] [%] | cell viability [25] [%] | cell viability [26] [%] | cell viability [27] [%] | cell viability [28] [%] | cell viability [29] [%] | cell viability [30] [%] | cell viability [31] [%] | cell viability [32] [%] | cell viability [33] [%] |
| --- | --- | --- | --- | --- | --- | --- | --- | --- | --- | --- | --- | --- | --- | --- | --- | --- | --- | --- | --- | --- | --- | --- | --- | --- | --- | --- | --- | --- | --- | --- | --- | --- | --- |
| Cc1noc(N[S+](=O)([O-])c2ccc(N)cc2)c1C | 80.2 | 93.5 | 104 | 88.1 | 93.2 | 102 | 83.1 | 96.3 | 99.8 | 90.1 | 102 | 87.6 | 97.5 | 89.7 | 88.5 | 96.2 | 110 | 96 | 114 | 98 | 100 | 92.3 | 99.2 | 91.5 | 96.3 | 89.5 | 120 | 103 | 111 | 104 | 103 | 108 | 99.1 |
| CC[C@H](C)C(=O)O[C@H]1C[C@@H](C)\C=C2\C=C/[C@H](C)[C@H](CC[C@@H]3C[C@@H](O)CC(=O)O3)[C@@H]12 | 71.1 | 85.1 | 100 | 87.9 | 90.3 | 93.8 | 56.6 | 86 | 82.6 | 59.8 | 65.7 | 51.9 | 91.1 | 92.5 | 89.8 | 93.2 | 95 | 84.8 | 81.9 | 81.2 | 63.2 | 64.5 | 80.9 | 84.6 | 106 | 92.6 | 97 | 108 | 30 | 99.8 | 98 | 71.6 | 61.1 |
| CN1CCC(CNc2ccc3ncc(-c4cccc(OC(F)(F)F)c4)n3n2)CC1 | 107 | 102 | 104 | 95.6 | 89.1 | 89.7 | 74.5 | 49.7 | 41.6 | 32.2 | 5.1 | 109 | 110 | 113 | 97.4 | 96.4 | 97.6 | 78.3 | 52.9 | 42.5 | 35.5 | 6.26 | 93.3 | 109 | 92.8 | 98.7 | 99.4 | 87.3 | 77.3 | 42.3 | 32.4 | 30.4 | 6.78 |
| O=C(O)c1cccc(-c2noc(-c3ccccc3F)n2)c1 | 106 | 109 | 92.3 | 100 | 101 | 110 | 102 | 104 | 104 | 92.3 | 88.1 | 88.1 | 94.7 | 105 | 94.1 | 99.6 | 107 | 101 | 99.3 | 98.3 | 84.3 | 73.5 | 87.1 | 106 | 106 | 108 | 115 | 94.2 | 122 | 112 | 108 | 95.7 | 85.7 |
| CN(C)C(=O)[C@H](O)[C@H](Cc1ccccc1)NC(=O)c1cc2cc(Cl)ccc2[nH]1 | 98.5 | 109 | 107 | 118 | 122 | 119 | 109 | 86.1 | 14 | 11.2 | 7.62 | 95.8 | 80.9 | 81.7 | 86.3 | 108 | 94.6 | 104 | 81.2 | 14 | 8.95 | 6.87 | 85.2 | 108 | 105 | 100 | 111 | 105 | 105 | 77.9 | 18.8 | 8.36 | 6.18 |
| O=C(O)c1cccnc1 | 111 | 117 | 109 | 118 | 105 | 106 | 98.2 | 37.5 | 14.4 | 9.12 | 6.43 |  |  |  |  |  |  |  |  |  |  |  |  |  |  |  |  |  |  |  |  |  |  |
| Cc1nnc(C(=O)NC(C)(C)c2nc(C(=O)NCc3ccc(F)cc3)c(O)c(=O)n2C)o1 | 107 | 111 | 116 | 102 | 101 | 123 | 113 | 108 | 104 | 108 | 107 | 96.7 | 101 | 99.2 | 120 | 125 | 93.8 | 107 | 80.8 | 90.9 | 97 | 111 | 105 | 106 | 109 | 122 | 109 | 117 | 107 | 109 | 93.9 | 98.9 | 110 |
| CCOc1cc(C(=O)Nc2ccc(Cl)c(-c3nc4ccccc4[nH]3)c2)cc(OCC)c1OCC | 70.1 | 76 | 91.4 | 92.8 | 92 | 87.5 | 89.3 | 91 | 85.2 | 17.4 | 62.4 | 76.8 | 74.7 | 93.6 | 92.7 | 94.2 | 94.4 | 109 | 94.5 | 93.5 | 9.91 | 48.1 | 73.9 | 77.1 | 91.8 | 95.4 | 85.6 | 93.5 | 92.6 | 86.6 | 77.7 | 16.8 | 46.1 |
| Cc1nnc(C(C)C)n1[C@@H]1C[C@H]2CC[C@@H](C1)N2CC[C@H](NC(=O)C1CCC(F)(F)CC1)c1ccccc1 | 83.1 | 90.9 | 95.8 | 95 | 77.2 | 98.3 | 105 | 98 | 102 | 64.9 | 57.1 | 78.9 | 74.3 | 82.2 | 93.4 | 86.1 | 103 | 84.9 | 85.6 | 86.1 | 43.6 | 38.6 | 84.6 | 90.5 | 101 | 90.1 | 88.9 | 103 | 87.8 | 103 | 105 | 51.8 | 40.2 |
| C[C@@H](Cc1cc2c(c(C(N)=O)c1)N(CCCO)CC2)NCCOc1ccccc1OCC(F)(F)F | 86.8 | 85.3 | 76.7 | 82.9 | 99 | 96.7 | 95.5 | 97.3 | 101 | 98.1 | 88.7 | 95.1 | 111 | 114 | 112 | 119 | 107 | 121 | 101 | 102 | 110 | 99.2 | 93.4 | 98.3 | 101 | 110 | 123 | 118 | 111 | 142 | 110 | 110 | 82.9 |
| C/C1=C/C(=C(/CNC(=O)C2=CC(=CC3=C2C=N[N]3C4CCCC4)C5=CC=C(CN6CCOCC6)C=C5)C(=O)N1)C | 113 | 122 | 126 | 23.4 | 117 | 127 | 115 | 115 | 113 | 106 | 7.3 | 97.8 | 103 | 116 | 18.1 | 106 | 96.5 | 83.4 | 93.2 | 92 | 67.5 | 4.27 | 116 | 124 | 132 | 22.7 | 130 | 122 | 118 | 129 | 128 | 126 | 6.82 |
